In patent US20260356817A1, “AMINOPYRIMIDINE AND AMINOTRIAZINE DERIVATIVES AS MYC PROTEIN MODULATORS” (Sanford Burnham Prebys Medical Discovery Institute, priority 2022, published 2026) one finds IC50 data, which are given here for 16 compounds.

In general, IC50 refers to the concentration that gives 50% inhibition.

Where two headings read alike, the source gives them in different places.

This experiment concerns Myc. Description: Myc inhibition assay: Myc expression per cell by anti-Myc immunofluorescence, high-content imaging. Type of experiment: cell-based, human (patient-derived medulloblastoma xenograft cells). Particulars: medulloblastoma PDX cells, 4 h. The text has this:
To identify Myc inhibitors, cells isolated from patient-derived orthotopic xenografts (PDXs) from patients with Myc-driven medulloblastoma were used. Specifically, PDX cells were propagated by transplantation directly into the cerebellum of immunodeficient (NSG) mice and were never passaged in vitro in order to maintain properties of the tumor from which they were derived. Tumor tissues were isolated from tumor-bearing animals, dissociated into a single-cell suspension, resuspended in serum-free media, and immediately plated in 384 well plates. After overnight recovery, compounds were added to each well, and cells were incubated for 4 hours before being fixed and stained with anti-Myc antibodies and with DAPI to label nuclei. Cells were then analyzed using high-content imaging to determine the levels of Myc expression per cell and IC50 values of the compounds.
A general note: A xenograft is tissue or cells of one species grown in another, often human tumour cells in immunodeficient mice.

The mark [1] stands for this setting: Table 1, read-out: IC50 (Myc inhibition).
[2] abbreviates: Table 2, read-out: MYC Inhibition IC50.

As for `COc1cc(-c2ccnc(Sc3ccccc3)n2)ccn1` [Compound 234, 4-(2-methoxypyridin-4-yl)-2-(phenylthio)pyrimidine], the IC50 by setting is: under setting [1], 0.2 to 1 µM; under setting [2], 0.2 to 1 µM.

In the case of `COc1cc(-c2ccnc(Nc3ccncc3)n2)ccn1` [Compound 197, 4-(2-methoxypyridin-4-yl)-N-(pyridin-4-yl)pyrimidin-2-amine], the IC50 is, setting by setting: under setting [1], 1 to 10 µM; under setting [2], 1 to 10 µM.

On to `COC(=O)c1cccc(Nc2nccc(-c3ccnc(O)c3)n2)c1` [Compound 185, methyl 3-((4-(2-hydroxypyridin-4-yl)pyrimidin-2-yl)amino)benzoate], for which the IC50 under setting [1] fell in the range of 1 to 10 µM and the IC50 under setting [2] is 1 to 10 µM.

For `CN1CCN(c2nccc(-c3ccc4[nH]cnc4c3)n2)CC1` [Compound 74, 5-(2-(4-methylpiperazin-1-yl)pyrimidin-4-yl)-1H-benzo[d]imidazole], the IC50 lay within 1 to 10 µM under setting [1] and 1 to 10 µM under setting [2].

`CC(C)c1nnc(Nc2nccc(-c3ccc4[nH]cnc4c3)n2)[nH]1` [Compound 54, 4-(1H-benzo[d]imidazol-5-yl)-N-(5-isopropyl-4H-1,2,4-triazol-3-yl)pyrimidin-2-amine]: the IC50 is, setting by setting: under setting [1], 1 to 10 µM; under setting [2], 1 to 10 µM.

As to `Fc1cc(Nc2nccc(-c3ccc4[nH]cnc4c3)n2)cc(F)c1F` [Compound 258, 4-(1H-benzo[d]imidazol-5-yl)-N-(3,4,5-trifluorophenyl)pyrimidin-2-amine], the IC50 is < 0.2 µM under setting [1] and < 0.2 µM under setting [2].

Regarding `Oc1cc(-c2ccnc(Oc3ccccc3)n2)ccn1` [Compound 232, 4-(2-phenoxypyrimidin-4-yl)pyridin-2-ol], the IC50 is 10 to 100 µM under setting [1] and 10 to 100 µM under setting [2].

In the case of `Cc1cc(Nc2nccc(-c3cnc4nc[nH]c4c3)n2)ccc1F` [Compound 135, N-(4-fluoro-3-methylphenyl)-4-(1H-imidazo[4,5-b]pyridin-6-yl)pyrimidin-2-amine], the IC50 under setting [1] is < 0.2 µM and the IC50 under setting [2] was < 0.2 µM.

Regarding `COc1nccc(-c2ccnc(Nc3ccccc3)n2)n1` [Compound 163, 2′-Methoxy-N-phenyl-[4,4′-bipyrimidin]-2-amine], the IC50 lay in the range of 10 to 100 µM under setting [1] and 10 to 100 µM under setting [2].

As to `Oc1cc(-c2ccnc(Nc3cccc(F)c3)n2)ccn1` [Compound 242, 4-(2-((3-fluorophenyl)amino)pyrimidin-4-yl)pyridin-2-ol], the IC50 was 0.2 to 1 µM under setting [1] and 0.2 to 1 µM under setting [2].

Take `Cc1cc2nc[nH]c2cc1-c1ccnc(Nc2cccc(C(F)(F)F)c2)n1` [Compound 114, 4-(5-methyl-1H-benzo[d]imidazol-6-yl)-N-(3-(trifluoromethyl)phenyl)pyrimidin-2-amine]: the IC50 reads like this: under setting [1], 1 to 10 µM; under setting [2], 1 to 10 µM.

Take `FC(F)(F)c1cccc(Nc2nccc(-c3ccc4cn[nH]c4c3)n2)c1` [Compound 164, 4-(1H-indazol-6-yl)-N-(3-(trifluoromethyl)phenyl)pyrimidin-2-amine]: the IC50 was 1 to 10 µM under setting [1] and 1 to 10 µM under setting [2].

Consider `Oc1ccc(Nc2ccnc(Nc3cccc(F)c3)n2)cn1` [Compound 123, 5-((2-((3-fluorophenyl)amino)pyrimidin-4-yl)amino)pyridin-2-ol], for which the IC50 is, setting by setting: under setting [1], 10 to 100 µM; under setting [2], 10 to 100 µM.

Turning to `Brc1cccc(Nc2nccc(-c3ccc4[nH]cnc4c3)n2)c1` [Compound 31, 4-(1H-benzo[d]imidazol-5-yl)-N-(3-bromophenyl)pyrimidin-2-amine], the IC50 is, setting by setting: under setting [1], < 0.2 µM; under setting [2], < 0.2 µM.

Regarding `c1cc(Nc2nccc(-c3ccc4[nH]cnc4c3)n2)[nH]n1` [Compound 57, 4-(1H-benzo[d]imidazol-5-yl)-N-(1H-pyrazol-5-yl)pyrimidin-2-amine], the IC50 is, setting by setting: under setting [1], 1 to 10 µM; under setting [2], 1 to 10 µM.

For `FC(F)(F)c1cccc(Nc2ncnc(-c3cnc4nc[nH]c4c3)n2)c1` [Compound 105, 4-(1H-Imidazo[4,5-b]pyridin-6-yl)-N-(3-(trifluoromethyl)phenyl)-1,3,5-triazin-2-amine], the IC50 by setting is: under setting [1], < 0.2 µM; under setting [2], < 0.2 µM.
